Experimental data as given in PubChem BioAssay (NCI).
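96-well plates; 48 h exposure; 5 concentrations. Endpoints by linear interpolation between flanking doses. Not reached: highest tested concentration assigned. TGI denotes the concentration required for complete inhibition of growth.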

Legend:
Assay in all cases: inhibition of tumour cell growth, NCI panel, 48 h
[1] = test system: M14 melanoma
[2] = test system: HS 578T breast
[3] = test system: MDA-MB-231 breast
[4] = test system: MDA-N
[5] = test system: DU-145 prostate
[6] = test system: MDA-MB-435
[7] = test system: T-47D breast
[8] = test system: PC-3 prostate
[9] = test system: DMS 114 small cell lung
[10] = test system: 786-0 renal
[11] = test system: RXF-631 renal

SMILES	TGI [1] [µM]	TGI [2] [µM]	TGI [3] [µM]	TGI [4] [µM]	TGI [5] [µM]	TGI [6] [µM]	TGI [7] [µM]	TGI [8] [µM]	TGI [9] [µM]	TGI [10] [µM]	TGI [11] [µM]
O=C(/C=C/c1ccsc1)c1ccc(Cl)s1	> 100	> 100	> 100	> 100	> 100	79.9	> 100	> 100	–	–	–
Cn1nc2ccc3nccc(NCCNCCCl)c3c2n1	> 100	–	–	–	–	–	–	–	> 100	–	–
O=C(O)C1C2CCC(C2)C1c1ccccc1 (centres undefined)	> 100	> 100	> 100	> 100	> 100	> 100	> 100	> 100	–	> 100	–
CC1=NN(C(=O)c2ccccc2)C(=O)C1N=Nc1ccccc1C(=O)O (centres undefined)	–	–	–	–	–	–	–	–	> 100	–	–
O=C(NN1C(=O)C(Cl)C1c1ccc([N+](=O)[O-])cc1)c1ccccc1O (centres undefined)	> 100	–	–	–	–	–	–	–	> 100	–	–
CCOC(=O)C1CCn2c(nc3c(=O)n(C)c(=O)n(C)c32)S1 (centres undefined)	> 100	–	–	–	–	–	–	–	–	–	> 100
